Measured values published in paper PMC12202533, “Mechanistic Insights and Anti-cancer Activity of 2H-benzo[b][1,4]oxazin-3(4H)-one Linked 1,2,3-Triazoles in Human Cancer Cells” (Frontiers in Pharmacology, 2025).
Where two headings read alike, the source gives them in different places.

Experiments:
[1] = system: A549; experiment: CCK-8 cell viability assay and IC50 measurement; type: cell-based, human; conditions: Homo sapiens; for viability at 40 µM / inhibition at 40 µM: A549, 40 μM, 48 h; for viability at 40 µM: CCK-8, read-out: Cell viability (100%), 40 μM, 48 h, A549; for inhibition at 40 µM: read-out: inhibition rate
Experimental: (§1) In order to investigate the anticancer activity of new synthetic 1,4-benzoxazinone-linked 1,2,3-triazole compounds, we chose several cancer cell lines, including A549 (lung), Huh7 (liver), MCF-7 (breast), HCT-116 (colon), and SKOV3 (ovary), and measured cell viability using the CCK-8 assay. Cells were exposed to 40 μM of the compounds for 48 h, and then cell viability was determined. […] In addition, we used the reference drug gefitinib as a positive control and measured its cell viability on different cell lines. […] We used BEAS-2B cells as a normal cell line to determine the toxic effects of these compounds on normal cells. […] Furthermore, we evaluated the IC50 of these compounds in A549.
(§2) Human cancer cell lines A549, Huh7, MCF-7, HCT-116, and SKOV3 were obtained from ATCC. The cells were cultured in DMEM or RPMI 1640 medium supplemented with 10% FBS and 1% penicillin/streptomycin and incubated at 37°C in a CO2-humidified atmosphere.
(§3) Cells were cultured in DMEM or RPMI 1640 medium containing 10% FBS and 1% penicillin/streptomycin at 37°C and 5% CO2. The CCK-8 assay was performed on several human cancer cell lines, including A549, Huh7, MCF-7, HCT-116, and SKOV3, according to the manufacturer’s instructions. Cells were plated at a density of 5 × 10^3 cells per well in a 96-well plate. After 24 h of incubation, cells were treated with 40 μM compounds for 48 h. Cell viability was assessed by adding 10 μL of CCK-8 reagent, dissolved in the cell culture medium, and incubating for 1 h. Absorbance was measured at 450 nm using a microplate reader. IC50 values were determined using a dose-response curve with six concentrations (0, 10, 20, 40, 80, and 160 μM), and IC50 values were calculated using GraphPad Prism software.

[2] = system: HCT-116; experiment: CCK-8 cell viability assay; type: cell-based; conditions: Homo sapiens, HCT-116, 40 μM, 48 h, read-out: Cell viability (100%), 40 μM, 48 h, HCT-116
Experimental: as §1, §2, §3

[3] = system: Huh7; experiment: CCK-8 cell viability assay; type: cell-based; conditions: Homo sapiens, Huh-7, Huh7, 40 μM, 48 h, read-out: Cell viability (100%), 40 μM, 48 h, Huh7
Experimental: as §1, §2, §3

[4] = system: MCF-7; experiment: CCK-8 cell viability assay; type: cell-based; conditions: Homo sapiens, MCF7, MCF-7, 40 μM, 48 h, read-out: Cell viability (100%), 40 μM, 48 h, MCF-7
Experimental: as §1, §2, §3

[5] = system: SKOV3; experiment: CCK-8 cell viability assay; type: cell-based; conditions: Homo sapiens, SK-OV-3, SKOV3, 40 μM, 48 h, read-out: Cell viability (100%), 40 μM, 48 h, SKOV3
Experimental: as §1, §2, §3

[6] = CCK-8 cell viability assay, normal cell line; type: cell-based; conditions: human, BEAS-2B cells (normal cell line), BEAS-2B normal cell line, read-out: Cell viability (100%), 40 μM, 48 h, BEAS-2B
Experimental: as §1, §3

[7] = A549, 48 h, read-out: IC50 48 h
[8] = A549, 72 h, read-out: IC50 72 h

Row | IC50 [1, 7] [µM] | IC50 [1, 8] [µM] | Structure (SMILES) | viability at 40 µM [1] [%] | viability at 40 µM [2] [%] | viability at 40 µM [3] [%] | viability at 40 µM [4] [%] | viability at 40 µM [5] [%] | viability at 48 h, 40 µM [6] [%] | inhibition at 40 µM [1] [%]
1 | – | – | O=C1COc2ccc(NC(=O)c3cccc(-c4cn(Cc5ccc(Br)cc5)nn4)c3)cc2N1 [Compound 13a] | 105 ± 3.6 | 115 ± 4.01 | 109 ± 2.48 | 107 ± 3.39 | 104 ± 2.08 | 110 ± 1.16 | –
2 | – | – | Cc1cc(C)cc(Cn2cc(-c3cccc(C(=O)Nc4ccc5c(c4)NC(=O)CO5)c3)nn2)c1 [Compound 13b] | 114.5 ± 1.06 | 124 ± 4.48 | 108 ± 1.9 | 112 ± 2.33 | 115 ± 2.08 | 105.7 ± 0.38 | –
3 | > 100 | 64 ± 6.77 | O=C1COc2ccc(NC(=O)c3cccc(-c4cn(Cc5cc(F)c(F)c(F)c5)nn4)c3)cc2N1 [Compound 13c] | 63 ± 1 | 68.2 ± 3.35 | 110 ± 1.2 | 91.4 ± 2.78 | 88.5 ± 1.16 | 101 ± 1.59 | –
4 | – | – | N#Cc1ccc(F)cc1Cn1cc(-c2cccc(C(=O)Nc3ccc4c(c3)NC(=O)CO4)c2)nn1 [Compound 13d] | 133 ± 1.67 | 135 ± 3.97 | 126 ± 1.71 | 137 ± 1.49 | 120 ± 1.47 | 96.6 ± 2.6 | –
5 | > 100 | 64.7 ± 7.35 | O=C1COc2ccc(NC(=O)c3cccc(-c4cn(Cc5c(F)cccc5Cl)nn4)c3)cc2N1 [Compound 13e] | 45.95 ± 0.35 | 60.9 ± 1.95 | 126 ± 1.82 | 120 ± 3.06 | 85.8 ± 4.65 | 108 ± 1.19 | > 50
6 | 55.2 ± 1.56 | 53.3 ± 6.64 | O=C1COc2ccc(NC(=O)c3cccc(-c4cn(Cc5ccc(F)c(Cl)c5)nn4)c3)cc2N1 [Compound 13f] | 44.5 ± 3.23 | 68 ± 5.4 | 88.4 ± 1.3 | 85.5 ± 2.2 | 83.7 ± 1.74 | 124 ± 3.82 | > 50
7 | – | – | O=C1COc2ccc(NC(=O)c3cccc(-c4cn(Cc5cccc(Cl)c5)nn4)c3)cc2N1 [Compound 13g] | 99.5 ± 3 | 89.8 ± 1.75 | 104 ± 3.8 | 104.5 ± 0.28 | 109 ± 2.06 | 103.1 ± 0.72 | –
8 | 51.1 ± 2.54 | 49 ± 4.27 | O=C1COc2ccc(NC(=O)c3cccc(-c4cn(Cc5cc(Cl)ccc5F)nn4)c3)cc2N1 [Compound 13h] | 44.1 ± 2.78 | 80.4 ± 3 | 105 ± 2.37 | 94.2 ± 2.87 | 89.7 ± 5.2 | 125 ± 1.84 | > 50
9 | – | – | O=C1COc2ccc(NC(=O)c3cccc(-c4cn(Cc5ccc(F)cc5)nn4)c3)cc2N1 [Compound 13i] | 130 ± 1.04 | 142.6 ± 0.97 | 120 ± 2.62 | 124.6 ± 0.87 | 124.2 ± 1.08 | 117 ± 2.34 | –
10 | 43.5 ± 5.67 | 35.3 ± 5.81 | O=C1COc2ccc(NC(=O)c3cccc(-c4cn(Cc5ccccc5F)nn4)c3)cc2N1 [Compound 13j] | 53.6 ± 2.43 | 60.3 ± 1.3 | 97.2 ± 2.59 | 107 ± 2.73 | 92.73 ± 0.81 | 125.8 ± 0.46 | –
11 | – | – | O=C1COc2ccc(NC(=O)c3cccc(-c4cn(Cc5cc(Br)cc(Br)c5)nn4)c3)cc2N1 [Compound 13k] | 140.65 ± 0.11 | 152 ± 3.5 | 129 ± 2 | 141 ± 1.94 | 135 ± 2.4 | 112 ± 1.63 | –
12 | > 100 | 79.2 ± 6.11 | O=C1COc2ccc(NC(=O)c3cccc(-c4cn(Cc5ccc(Br)cc5F)nn4)c3)cc2N1 [Compound 13l] | 57 ± 2.02 | 110 ± 5.15 | 119 ± 2.06 | 105 ± 2.42 | 91.6 ± 2.21 | 101.5 ± 0.49 | –
13 | – | – | O=C1COc2ccc(NC(=O)c3cccc(-c4cn(Cc5cccc(C(F)(F)F)c5)nn4)c3)cc2N1 [Compound 13m] | 126 ± 1.9 | 144 ± 2.31 | 124 ± 3.41 | 127 ± 1.71 | 126 ± 2.44 | 107.9 ± 0.77 | –
14 | 88.6 ± 18 | 77 ± 6.21 | O=C1COc2ccc(NC(=O)c3cccc(-c4cn(Cc5c(Cl)cccc5Cl)nn4)c3)cc2N1 [Compound 13n] | 55.6 ± 1.02 | 83.1 ± 1.96 | 129.4 ± 0.81 | 122 ± 3.23 | 89.3 ± 1.41 | 104.7 ± 0.69 | –
15 | – | – | N#Cc1ccccc1Cn1cc(-c2cccc(C(=O)Nc3ccc4c(c3)NC(=O)CO4)c2)nn1 [Compound 13o] | 64 ± 6.89 | 97.9 ± 1.02 | 104 ± 2.7 | 103 ± 2.66 | 98.4 ± 2.58 | 109 ± 1.51 | –
16 | – | – | O=C1COc2ccc(NC(=O)c3cccc(-c4cn(Cc5ccc(C(F)(F)F)cc5)nn4)c3)cc2N1 [Compound 13p] | 94.7 ± 6.71 | 120 ± 2.54 | 119 ± 1.7 | 113 ± 1.67 | 104 ± 1.06 | 102 ± 4.05 | –
17 | 29.4 ± 3.49 | 34.9 ± 5.25 | O=C1COc2ccc(NC(=O)c3cccc(-c4cn(Cc5ccccc5Br)nn4)c3)cc2N1 [Compound 13q] | 29.3 ± 1.12 | 77.1 ± 2.31 | 123 ± 1.89 | 97.9 ± 2.13 | 89.5 ± 3.23 | 114.9 ± 0.85 | > 50
18 | – | – | O=C1COc2ccc(NC(=O)c3cccc(-c4cn(Cc5cccc(F)c5)nn4)c3)cc2N1 [Compound 13r] | 70 ± 2.73 | 74.9 ± 3.73 | 131 ± 2.34 | 122 ± 2.48 | 115.2 ± 0.67 | 96.3 ± 1.01 | –
19 | – | – | O=C1COc2ccc(NC(=O)c3cccc(-c4cn(Cc5ccc(I)cc5)nn4)c3)cc2N1 [Compound 13s] | 128.8 ± 1.19 | 150.6 ± 1.11 | 137 ± 1.61 | 127 ± 3.34 | 118 ± 1.64 | 94.7 ± 1.56 | –
20 | – | – | O=C1COc2ccc(NC(=O)c3cccc(-c4cn(Cc5ccc(F)cc5Cl)nn4)c3)cc2N1 [Compound 13t] | 96.6 ± 2.07 | 114 ± 1.76 | 101 ± 3.53 | 97.9 ± 2.53 | 97.2 ± 1.54 | 103 ± 2.67 | –
21 | – | – | O=C1COc2ccc(NC(=O)c3cccc(-c4cn(-c5ccc(C(F)(F)F)cc5)nn4)c3)cc2N1 [Compound 14a] | 88.4 ± 7.15 | 110 ± 5.19 | 114 ± 1.46 | 101 ± 3.09 | 103 ± 2.87 | 111.6 ± 0.81 | –
22 | 38.7 ± 14.9 | 34.8 ± 1.96 | O=C1COc2ccc(NC(=O)c3cccc(-c4cn(-c5cccc(Cl)c5)nn4)c3)cc2N1 [Compound 14d] | 29.01 ± 0.13 | 134 ± 3.97 | 141.3 ± 1.17 | 120 ± 2.54 | 90.5 ± 3.81 | 118 ± 2.43 | > 50
23 | 29.1 ± 1.15 | 27.8 ± 0.96 | O=C1COc2ccc(NC(=O)c3cccc(-c4cn(-c5ccccc5Cl)nn4)c3)cc2N1 [Compound 14e] | 46.5 ± 2.68 | 118 ± 5.23 | 134.1 ± 0.79 | 127 ± 1.89 | 86.5 ± 4.84 | 97.5 ± 2.69 | > 50
24 | – | – | O=C1COc2ccc(NC(=O)c3cccc(-c4cn(-c5ccc(Br)cc5F)nn4)c3)cc2N1 [Compound 14f] | 39.6 ± 1.77 | 80.62 ± 0.6 | 71.4 ± 1.66 | 74.2 ± 1.07 | 79.8 ± 2.53 | 90.98 ± 0.38 | > 50
